Where two headings read alike, the source gives them in different places. Some results are limits rather than exact numbers.

Test [1] concerns RANTES secretion by prostate cancer DU145 cells. The experiment in a line: ELISA to detect secreted RANTES, prostate cancer DU145 cells. The format is cell-based. Particulars: Homo sapiens, DU-145; DU145 cells, 20 hours; read-out: IC50, inhibition of the secretion of RANTES. The procedure: Prostate cancer DU145 cells were seeded at 20,000 cells/well in a 96-well tissue culture plate. The following day media was removed and replaced with complete media containing IKKε/TBK1 inhibitor (starting concentration 25 μM, 1:3 dilutions, final DMSO 0.05%). Cells were incubated for 20 hours and culture supernatant used to determine secreted RANTES levels using a commercially available ELISA kit (R & D Systems, Minneapolis, Minn.).
In general terms: ELISA stands for enzyme-linked immunosorbent assay.

For test [2], the system named is IKKε-mediated phosphorylation of IRF3. Briefly: ELISA for in-situ phosphorylation of IRF3 (phospho-Ser396) in HEK293T cells cotransfected with IRF3 and IKKε. The format is cell-based. To be noted: Homo sapiens, HEK-293T, 20 h, HEK293T cells, 20 hours, read-out: IC50, in-situ IKKε-mediated phosphorylation of IRF3. In short, it runs like this: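 HEK293T cells cotransfected with IRF3 and IKKε were treated with compound for 20 h, and lysates were assayed by ELISA for phospho-Ser396 IRF3, normalized to DMSO. Viability was checked in parallel by CellTiter-Glo. For TBK1, cells cotransfected with IRF7 and TBK1 were treated overnight and probed by Western blot for phospho-Ser477/Ser479 IRF7.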

The target in test [3] is T1, IKKε (Homo sapiens, UniProt Q14164).
T1 construct: His-tag (in-house Sf9 preparation) or GST-tag (purchased Invitrogen preparation); these are alternatives, not both on one protein; host or cells: Sf9 cells
T1 sequence (Q14164 1-716): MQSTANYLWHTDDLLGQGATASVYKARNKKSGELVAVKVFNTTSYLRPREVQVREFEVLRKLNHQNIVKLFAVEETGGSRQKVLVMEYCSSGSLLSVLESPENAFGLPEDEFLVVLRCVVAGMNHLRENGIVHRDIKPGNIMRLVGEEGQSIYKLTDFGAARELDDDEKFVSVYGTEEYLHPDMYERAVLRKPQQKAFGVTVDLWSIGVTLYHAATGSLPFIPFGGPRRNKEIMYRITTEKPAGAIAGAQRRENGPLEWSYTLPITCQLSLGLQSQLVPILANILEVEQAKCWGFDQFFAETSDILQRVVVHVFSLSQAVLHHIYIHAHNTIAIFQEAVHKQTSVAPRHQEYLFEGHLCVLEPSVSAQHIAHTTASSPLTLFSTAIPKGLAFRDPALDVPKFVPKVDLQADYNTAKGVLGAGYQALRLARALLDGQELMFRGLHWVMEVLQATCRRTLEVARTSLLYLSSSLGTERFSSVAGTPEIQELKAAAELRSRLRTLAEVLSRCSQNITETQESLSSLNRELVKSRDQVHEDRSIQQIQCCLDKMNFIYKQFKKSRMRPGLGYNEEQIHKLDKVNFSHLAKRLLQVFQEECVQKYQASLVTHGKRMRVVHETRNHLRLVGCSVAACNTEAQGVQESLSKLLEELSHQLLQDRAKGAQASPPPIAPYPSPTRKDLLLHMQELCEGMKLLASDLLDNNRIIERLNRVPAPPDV
The experiment in a line: In-vitro IKKε kinase assay (radiolabelled ATP, filterplate). The format is biochemical. Particulars: "sensitized" assay; read-out: IC50, inhibition of the kinase activity of IKKε. In a few lines: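 His-tagged IKKε from Sf9 cells or GST-tagged IKKε, with myelin basic protein, casein or dephosphorylated casein as substrate and 32 μM ATP (2× Km) plus [γ^33]ATP. "Normal" assay used 0.1 μg/ml enzyme; "sensitized" used 0.015 μg/ml with dephosphorylated casein only. Stopped after 30–45 min with phosphoric acid; P-81 filter counts normalized to DMSO after background subtraction.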

The mark [4] stands for this setting: range given from about 1 μM to about 250 nM.

A word on the IC50: it is the concentration that inhibits the measured activity by half. In the case of `N#Cc1cc(-c2ccnc(Nc3cnc(N4CCOCC4)nc3)n2)ccc1OC1CCOCC1` [Example Compound 2, 5-(2-{[2-(Morpholin-4-yl)pyrimidin-5-yl]amino}pyrimidin-4-yl)-2-(tetrahydro-2H-pyran-4-yloxy)benzonitrile], the 50% inhibitory concentration (IC50) in test [1] was 60 to 125 nM.

Turning to `CN(CCS(C)(=O)=O)Cc1ccc(Nc2nccc(-c3ccc(OC4CCOCC4)c(C#N)c3)n2)cn1` [Example Compound 207, 5-(2-{[6-({Methyl[2-(methylsulfonyl)ethyl]amino}methyl)pyridin-3-yl]amino}pyrimidin-4-yl)-2-(tetrahydro-2H-pyran-4-yloxy)benzonitrile], the results for the half-inhibitory concentration (IC50) in test [2] (setting [4]) and in test [3] were 250 to 1000 nM and under 5 nM, respectively.

With `CC(=O)c1ccc(Nc2nccc(-c3ccc(OC4CCOCC4)c(C#N)c3)n2)cn1` [Example Compound 212, 5-{2-[(6-Acetylpyridin-3-yl)amino]pyrimidin-4-yl}-2-(tetrahydro-2H-pyran-4-yloxy)benzonitrile], the results for the half-inhibitory concentration (IC50) in test [2] and in test [3] were under 100 nM and under 5 nM, respectively.

In the case of `N#Cc1cc(-c2ccnc(Nc3ccc(N4CC(O)C4)nc3)n2)ccc1OC1CCOCC1` [Example Compound 215, 5-(2-{[6-(3-Hydroxyazetidin-1-yl)pyridin-3-yl]amino}pyrimidin-4-yl)-2-(tetrahydro-2H-pyran-4-yloxy)benzonitrile], the IC50 in test [2] is under 100 nM; in test [3] it was under 5 nM.

On to `COC1CN(Cc2cc(Nc3nccc(-c4ccc(OC5CCOCC5)c(C#N)c4)n3)ccn2)C1` [Example Compound 219, 5-[2-({2-[(3-Methoxyazetidin-1-yl)methyl]pyridin-4-yl}amino)pyrimidin-4-yl]-2-(tetrahydro-2H-pyran-4-yloxy)benzonitrile], for which the half-maximal inhibitory concentration (IC50) is 1000 to 5000 nM in test [2] and under 5 nM in test [3].

In the case of `COc1cc(Nc2nccc(-c3ccc(O[C@@H]4CCN(C(=O)CO)C4)c(C#N)c3)n2)ccn1` [Example Compound 225, 2-{[(3R)-1-(Hydroxyacetyl)pyrrolidin-3-yl]oxy}-5-{2-[(2-methoxypyridin-4-yl)amino]pyrimidin-4-yl}benzonitrile], the IC50 in test [2] was 1000 to 5000 nM; in test [3] it was under 5 nM.

`N#Cc1cc(-c2ccnc(Nc3ccnc(CO)c3)n2)ccc1OC1CCOCC1` [Example Compound 227, 5-(2-{[2-(Hydroxymethyl)pyridin-4-yl]amino}pyrimidin-4-yl)-2-(tetrahydro-2H-pyran-4-yloxy)benzonitrile]: the figures for the IC50 in test [2] and in test [3] were under 100 nM and under 5 nM, respectively.

For `CC(=O)NCc1ccc(Nc2nccc(-c3ccc(OC4CCOCC4)c(C#N)c3)n2)cn1` [Example Compound 228, N-{[5-({4-[3-Cyano-4-(tetrahydro-2H-pyran-4-yloxy)phenyl]pyrimidin-2-yl}amino)pyridin-2-yl]methyl}acetamide], the IC50 was 250 to 1000 nM in test [2] (setting [4]) and under 5 nM in test [3].

With `N#Cc1cc(-c2ccnc(Nc3ccc(CNC(=O)N4CCOCC4)nc3)n2)ccc1OC1CCOCC1` [Example Compound 229, N-{[5-({4-[3-Cyano-4-(tetrahydro-2H-pyran-4-yloxy)phenyl]pyrimidin-2-yl}amino)pyridin-2-yl]methyl}morpholine-4-carboxamide], the half-maximal inhibitory concentration (IC50) was 100 to 250 nM in test [2] and under 5 nM in test [3].

As for `COC(=O)c1cc(Nc2nccc(-c3ccc(OC4CCOCC4)c(C#N)c3)n2)ccn1` [Example Compound 230, Methyl 4-({4-[3-cyano-4-(tetrahydro-2H-pyran-4-yloxy)phenyl]pyrimidin-2-yl}amino)pyridine-2-carboxylate], the half-inhibitory concentration (IC50) in test [2] was 100 to 250 nM; in test [3] it was under 5 nM.

For the compound `CC(O)c1ccc(Nc2nccc(-c3ccc(OC4CCOCC4)c(C#N)c3)n2)cn1` (centres unmarked) [Example Compound 231, 5-(2-{[6-(1-Hydroxyethyl)pyridin-3-yl]amino}pyrimidin-4-yl)-2-(tetrahydro-2H-pyran-4-yloxy)benzonitrile], the IC50 is 100 to 250 nM in test [2] and under 5 nM in test [3].

`N#Cc1cc(-c2ccnc(Nc3ccc(C(=O)N4CCCC4)nc3)n2)ccc1OC1CCN(C(=O)CO)CC1` [Example Compound 232, 2-{[1-(Hydroxyacetyl)piperidin-4-yl]oxy}-5-(2-{[6-(pyrrolidin-1-ylcarbonyl)pyridin-3-yl]amino}pyrimidin-4-yl)benzonitrile]: the 50% inhibitory concentration (IC50) in test [2] was 100 to 250 nM; in test [3], under 5 nM.

For the compound `N#Cc1cc(-c2ccnc(Nc3ccnc(N4CC(O)C4)c3)n2)ccc1NC(=O)C1CC1` [Example Compound 237, N-[2-Cyano-4-(2-{[2-(3-hydroxyazetidin-1-yl)pyridin-4-yl]amino}pyrimidin-4-yl)phenyl]cyclopropanecarboxamide], the IC50 is 1000 to 5000 nM in test [2] and under 5 nM in test [3].

On to `COCCNc1cc(Nc2nccc(-c3ccc(OC4CCN(C(=O)CO)CC4)c(C#N)c3)n2)ccn1` [Example Compound 238, 2-{[1-(Hydroxyacetyl)piperidin-4-yl]oxy}-5-[2-({2-[(2-methoxyethyl)amino]pyridin-4-yl}amino)pyrimidin-4-yl]benzonitrile], for which the IC50 in test [2] (setting [4]) was 250 to 1000 nM; in test [3], under 5 nM.

On to `N#Cc1cc(-c2ccnc(Nc3ccnc(NCCO)c3)n2)ccc1OC1CCN(C(=O)CO)CC1` [Example Compound 239, 2-{[1-(Hydroxyacetyl)piperidin-4-yl]oxy}-5-[2-({2-[(2-hydroxyethyl)amino]pyridin-4-yl}amino)pyrimidin-4-yl]benzonitrile], for which the concentration for half-maximal inhibition (IC50) in test [2] is 1000 to 5000 nM; in test [3], under 5 nM.

Consider `N#Cc1cc(-c2ccnc(Nc3ccnc(N4CC(O)C4)c3)n2)ccc1OC1CCN(C(=O)CO)CC1` [Example Compound 240, 2-{[1-(Hydroxyacetyl)piperidin-4-yl]oxy}-5-(2-{[2-(3-hydroxyazetidin-1-yl)pyridin-4-yl]amino}pyrimidin-4-yl)benzonitrile], for which the IC50 in test [2] was 1000 to 5000 nM; in test [3] it was under 5 nM.

With `CC(c1ccc(Nc2nccc(-c3ccc(OC4CCOCC4)c(C#N)c3)n2)cn1)N1CC(N(C)C)C1` (centres unmarked) [Example Compound 244, 5-{2-[(6-{1-[3-(Dimethylamino)azetidin-1-yl]ethyl}pyridin-3-yl)amino]pyrimidin-4-yl}-2-(tetrahydro-2H-pyran-4-yloxy)benzonitrile], the values for the IC50 in test [2] and in test [3] were under 100 nM and under 5 nM, respectively.

Turning to `COC1CN(c2cc(Nc3nccc(-c4ccc(OC5CCN(C(=O)CO)CC5)c(C#N)c4)n3)ccn2)C1` [Example Compound 249, 2-{[1-(Hydroxyacetyl)piperidin-4-yl]oxy}-5-(2-{[2-(3-methoxyazetidin-1-yl)pyridin-4-yl]amino}pyrimidin-4-yl)benzonitrile], the IC50 in test [2] was under 100 nM; in test [3], under 5 nM.

As to `CC(c1ncc(Nc2nccc(-c3ccc(OC4CCOCC4)c(C#N)c3)n2)cc1F)N1CC(N(C)C)C1` (centres unmarked) [Example Compound 250, 5-{2-[(6-{1-[3-(Dimethylamino)azetidin-1-yl]ethyl}-5-fluoropyridin-3-yl)amino]pyrimidin-4-yl}-2-(tetrahydro-2H-pyran-4-yloxy)benzonitrile], the IC50 in test [2] is 100 to 250 nM; in test [3] it was under 5 nM.

For `CC(c1ncc(Nc2nccc(-c3ccc(OC4CCOCC4)c(C#N)c3)n2)cc1F)N1CCOCC1` (centres unmarked) [Example Compound 251], the half-maximal inhibitory concentration (IC50) in test [2] was 100 to 250 nM; in test [3], under 5 nM.

In the case of `CC(c1ccc(Nc2nccc(-c3ccc(OC4CCOCC4)c(C#N)c3)n2)cn1)N1CCOCC1` (centres unmarked) [Example Compound 252, 5-[2-({6-[1-(Morpholin-4-yl)ethyl]pyridin-3-yl}amino)pyrimidin-4-yl]-2-(tetrahydro-2H-pyran-4-yloxy)benzonitrile], the concentration for half-maximal inhibition (IC50) in test [2] is under 100 nM; in test [3], under 5 nM.

The values above are taken from US20140288044A1, “COMPOSITIONS AND THERAPEUTIC USES OF IKK-RELATED KINASE EPSILON AND TANKBINDING KINASE 1 INHIBITORS” (Alzheimer's Institute of America, Inc., priority 2011, published 2014).
